# Data taken from ChEMBL document CHEMBL4390699, “Design, synthesis and biological evaluation of novel antitumor spirodihydrothiopyran-oxindole derivatives” (Bioorg Med Chem Lett, 2019).
# pIC50, pKi: −log10 of the molar value.
# Key:
# [1] = system: MCF7; assay: Antiproliferative activity against human MCF7 cells assessed as inhibition of cell growth at 10 uM measured after 24 hrs by CCK8 assay relative to control; format: functional; conditions: MCF7, 24 h, read-out: GI
# [2] = system: HCT-116; assay: Antiproliferative activity against human HCT116 cells measured after 24 hrs by CCK8 assay; format: functional, cell-based; conditions: HCT-116, 24 h
# [3] = system: A549; assay: Antiproliferative activity against human A549 cells measured after 24 hrs by CCK8 assay; format: functional, cell-based; conditions: A549, 24 h
# [4] = system: A549; assay: Antiproliferative activity against human A549 cells assessed as inhibition of cell growth at 10 uM measured after 24 hrs by CCK8 assay relative to control; format: functional; conditions: A549, 24 h, read-out: GI
# [5] = system: HCT-116; assay: Antiproliferative activity against human HCT116 cells assessed as inhibition of cell growth at 10 uM measured after 24 hrs by CCK8 assay relative to control; format: functional; conditions: HCT-116, 24 h, read-out: GI
# [6] = system: MCF7; assay: Antiproliferative activity against human MCF7 cells measured after 24 hrs by CCK8 assay; format: functional, cell-based; conditions: MCF7, 24 h
# [7] = target: E3 ubiquitin-protein ligase Mdm2 (Homo sapiens, UniProt Q00987); assay: Inhibition of PMDM6-F probe binding to MDM2 (1 to 118 residues) (unknown origin) preincubated for 30 mins followed by PMDM6-F addition and measured after 1 hr fluorescence polarization assay
# Chain of E3 ubiquitin-protein ligase Mdm2 (Q00987 whole entry, the tested form may be a part): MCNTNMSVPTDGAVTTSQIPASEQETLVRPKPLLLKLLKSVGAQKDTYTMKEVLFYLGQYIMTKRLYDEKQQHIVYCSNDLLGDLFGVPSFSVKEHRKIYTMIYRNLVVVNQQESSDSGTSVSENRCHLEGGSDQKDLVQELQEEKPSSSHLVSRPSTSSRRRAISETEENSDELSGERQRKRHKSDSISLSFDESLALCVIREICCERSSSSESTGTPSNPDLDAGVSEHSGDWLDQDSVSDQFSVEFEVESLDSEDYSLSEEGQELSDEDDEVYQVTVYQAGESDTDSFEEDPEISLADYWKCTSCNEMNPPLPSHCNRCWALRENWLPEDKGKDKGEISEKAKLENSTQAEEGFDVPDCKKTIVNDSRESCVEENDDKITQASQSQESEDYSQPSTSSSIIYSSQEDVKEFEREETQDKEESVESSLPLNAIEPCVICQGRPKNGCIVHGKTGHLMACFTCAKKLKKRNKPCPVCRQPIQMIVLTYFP
# [8] = system: A549; assay: cells; conditions: Homo sapiens, A549, 48 h, read-out: Activity
# Description: Induction of apoptosis in human A549 cells assessed as viable cells at 5 uM measured after 48 hrs by annexin V-FITC/propidium iodide staining based flow cytometry (Rvb = 92.9%)
# [9] = system: A549; assay: Cell cycle arrest in human A549 cells assessed as decrease in accumulation at S-phase measured after 24 hrs by DNA-staining solution based flow cytometry; format: functional
# [10] = system: A549; assay: cells; conditions: Homo sapiens, A549, 48 h, read-out: Activity; remark: listed apart in the source
# Description: Induction of apoptosis in human A549 cells assessed as viable cells at 10 uM measured after 48 hrs by annexin V-FITC/propidium iodide staining based flow cytometry (Rvb = 92.9%)
# [11] = system: A549; assay: Cell cycle arrest in human A549 cells assessed as increase in accumulation at G0/G1-phase measured after 24 hrs by DNA-staining solution based flow cytometry; format: functional
# [12] = system: A549; assay: Cell cycle arrest in human A549 cells assessed as decrease in accumulation at G2/M-phase measured after 24 hrs by DNA-staining solution based flow cytometry; format: functional
# [13] = system: HUVEC; assay: Cytotoxicity against HUVEC measured after 24 hrs by CCK8 assay; format: cell-based; conditions: Homo sapiens
Structure (SMILES),inhibition of growth at 10 µM [1] [%],pIC50 [2],pIC50 [3],inhibition of growth at 10 µM [4] [%],inhibition of growth at 10 µM [5] [%],pIC50 [6],pKi [7],viability at 5 µM [8] [%],Activity [9],viability at 10 µM [10] [%],Activity [11],Activity [12],pIC50 [13]
O=C(C1=CC[C@@H](c2ccc(Cl)cc2)[C@@]2(S1)C(=O)Nc1ccccc12)c1ccccc1,72.5,5.55,5.41,72.5,89.1,5.07,–,–,–,–,–,–,–
O=C(C1=CC[C@@H](c2ccccc2)[C@@]2(S1)C(=O)Nc1cccc(Br)c12)c1ccccc1,24.3,–,5.51,78.5,45,–,–,–,–,–,–,–,–
O=C(C1=CC[C@@H](c2ccccc2)[C@@]2(S1)C(=O)Nc1cccc(Br)c12)c1ccco1,92.8,5.72,5.35,87.1,92.1,5.32,4.36,–,–,–,–,–,–
COc1ccc(C(=O)C2=CC[C@@H](c3ccc(OC)cc3)[C@@]3(S2)C(=O)Nc2cccc(Br)c23)cc1,25.9,–,–,40.9,14.3,–,–,–,–,–,–,–,–
O=C(C1=CC[C@@H](c2ccccc2)[C@@]2(S1)C(=O)Nc1cccc(Br)c12)c1ccc(Br)cc1,77.7,5.59,5.48,93.1,67.3,5.09,–,–,–,–,–,–,–
COc1ccc(C(=O)C2=CC[C@@H](c3ccccc3)[C@@]3(S2)C(=O)Nc2cccc(Br)c23)cc1,36.9,5.08,5.22,74.3,68.4,–,–,–,–,–,–,–,–
O=C(C1=CC[C@@H](c2ccc(F)cc2)[C@@]2(S1)C(=O)Nc1cccc(Br)c12)c1ccccc1,21.9,–,5.31,84.4,44.1,–,–,–,–,–,–,–,–
O=C(C1=CC[C@@H](c2ccccc2)[C@@]2(S1)C(=O)Nc1cccc(Cl)c12)c1ccccc1,43.9,5.00,5.00,65.4,48.8,–,–,–,–,–,–,–,–
CCC[C@@H]1CC=C(C(=O)c2ccc(OC)cc2)S[C@@]12C(=O)Nc1cccc(Br)c12,19.8,–,–,44,22.7,–,–,–,–,–,–,–,–
COc1ccc(C(=O)C2=CC[C@@H](c3ccc(Br)cc3)[C@@]3(S2)C(=O)Nc2cccc(Br)c23)cc1,18.5,–,–,19,10.8,–,–,–,–,–,–,–,–
O=C(C1=CC[C@@H](c2ccccc2)[C@@]2(S1)C(=O)Nc1ccc(F)cc12)c1ccccc1,63.9,5.00,5.37,74.2,88.4,5.26,–,–,–,–,–,–,–
COc1ccc(C(=O)C2=CC[C@@H](c3ccc([N+](=O)[O-])cc3)[C@@]3(S2)C(=O)Nc2cccc(Br)c23)cc1,28.1,–,4.86,73.9,48.1,–,–,–,–,–,–,–,–
O=C(C1=CC[C@@H](c2ccc(F)cc2)[C@@]2(S1)C(=O)Nc1ccccc12)c1ccccc1,58.8,5.70,5.20,72.3,91.1,4.85,–,–,–,–,–,–,–
O=C(C1=CC[C@@H](c2ccccc2)[C@@]2(S1)C(=O)Nc1cc(F)ccc12)c1ccccc1,23.9,–,5.21,66,45.1,–,–,–,–,–,–,–,–
COc1ccc(C2=N[C@H](c3ccc(Cl)cc3)[C@H](c3ccc(Cl)cc3)N2C(=O)N2CCNC(=O)C2)c(OC(C)C)c1,32.8,–,5.62,47,64.4,4.92,–,45.9,Dose-dependent effect,44.1,Dose-dependent effect,–,–
O=C(C1=CC[C@@H](c2ccccc2)[C@@]2(S1)C(=O)Nc1ccccc12)c1ccccc1,51.7,5.03,5.20,57.6,87.6,4.97,–,–,–,–,–,–,–
CC[C@@H]1CC=C(C(=O)c2ccc(OC)cc2)S[C@@]12C(=O)Nc1cccc(Br)c12,72.9,–,4.99,46.9,70.8,4.88,–,–,–,–,–,–,–
O=C(C1=CC[C@@H](c2ccc(Br)cc2)[C@@]2(S1)C(=O)Nc1cccc(Br)c12)c1ccccc1,52.7,5.23,5.82,88.1,86,5.06,–,–,–,–,–,–,–
O=C(C1=CC[C@@H](c2ccc(Br)cc2)[C@@]2(S1)C(=O)Nc1ccccc12)c1ccccc1,69.4,5.77,5.68,75.1,91.9,5.17,4.70,35.7,Dose-dependent effect,29,Dose-dependent effect,Dose-dependent effect,5.39
O=C(C1=CC[C@@H](c2ccccc2)[C@@]2(S1)C(=O)Nc1cc(Br)ccc12)c1ccccc1,54.5,5.02,5.32,67.6,80,5.00,–,–,–,–,–,–,–
